Assay results taken from patent US20090143471A1, “Process for the Atomization of Ioxilan” (GUERBET, priority 2006, published 2009).

Assay: immediate solubility in water
Assay type: physicochemical
Conditions: ambient or moderate temperature (typically from 20 to 40° C.)
Experimental: Another disadvantage of the prior process by crystallization was that, in order to obtain an appropriate concentration of active principle in the contrast agent, the dissolution of the crystalline compound B1 (solid crystalline ioxilan, denoted B1; compound B of FIG. 1 is compound B1) required heating at high temperature (80° C.). This is because the immediate solubility of B1 in water at ambient or moderate temperature (typically from 20 to 40° C.) was of the order of 50 mg of iodine/ml.
The atomized compound B2 is soluble at ambient or moderate temperature. It is possible, starting from the compound B2, to obtain an appropriate pharmaceutical solution without needing to heat at high temperature. The immediate solubility of B2 in water at ambient or moderate temperature, of the order of at least 500 mg of iodine/ml and typically of approximately 500 mg of iodine/ml, makes it possible to obtain an injected contrast agent having a concentration of 350 to 450 mg of iodine/ml, for example 350, 380 or 400 mg of iodine/ml.

CC(=O)N(CC(O)CO)c1c(I)c(C(=O)NCCO)c(I)c(C(=O)NCC(O)CO)c1I (stereo not shown) [B1, 5-[N-(2,3-dihydroxypropyl)acetamido]-2,4,6-triiodo-N-(2,3-dihydroxypropyl)-N′-(2-hydroxyethyl)isophthalamide]
immediate solubility in water: ~50 mg of iodine/ml
